Consider 1 compound from patent US10124008B2, “Use of inhibitors of acid sphingomyelinase to treat acquired and inherited retinal degenerations” (Wisconsin Alumni Research Foundation, priority 2014, dated 2018).

Holding throughout (format): cell-based, porcine
In assay [1] the test system is acetylated tubulin in polarized primary RPE. The assay can be described thus: Immunofluorescence staining of acetylated and tyrosinated tubulin. The following applies: inhibitors 10 μM for 3 h, 48 h after A2E treatment. Here is the method:
ALEXAFLUOR secondary antibodies were used at 1:500 and rhodamine-phalloidin (Cytoskeleton, PHDR1) at 1:200. Filters were mounted under coverslips on glass slides under […] (Vector labs), sealed and visualized with Andor Revolution XD spinning disk confocal microscope using a 60×1.4 NA oil objective with identical exposures and gains for each antibody. Acetylated tubulin-labeled stable microtubules (≥5 μm in length) after nocodazole treatment were analyzed manually in the Surpass mode of Imaris (Bitplane).
We performed two initial screens: first, we compared the ability of functional inhibitors (fluoxetine and amitriptyline) with that of the lone structural ASMase inhibitor zoledronic acid in decreasing acetylated tubulin. Here, polarized RPE monolayers with or without A2E were treated with one of the three inhibitors (10 μM, 3 h). Desipramine as a positive control. At the end of the incubation period, cells were fixed and stained for acetylated tubulin, imaged and the amount of acetylated tubulin in the cells was quantified. Second, we evaluated three additional drugs (sertraline, astemizole and fexofenadine) for their abilities to increase autophagy in the RPE. Cells with or without bisretinoids were transfected with mRFP-GFP-LC3, starved to induce autophagy, treated with drugs and imaged as in FIG. 9D.

For assay [2], the system named is primary RPE monolayers. The assay can be described thus: Lysosome exocytosis (surface LAMP2) after 10% normal human serum. Particulars: RPE with A2E, complement attack; short treatment with desipramine. Here is the method:
Cells were rinsed in recording medium (HBSS with 4.5 g/L glucose, 20 mM HEPES) and incubated with ionomycin or […] normal human serum (Quidel) for 10 min at 37° C. Filters were immediately transferred to ice and analyzed for surface LAMP2 or β-hex activity (see below).
Cells were stained with mouse monoclonal antibody to the lumenal domain of Lamp2 (Serotec, MCA2558, 1:500) (48) or C5b-9 (Novus, NBP1-05120, 1:100) at 4° C. for 30 min. The antibody was diluted in PBS supplemented with Ca^2+ and Mg^2++1% BSA. Cells were then fixed with 2% PFA for 5 min on ice, permeabilized, and stained for ZO-1 as detailed above. Alexa-conjugated secondary antibodies (INVITROGEN) were used at 1:500 for 30 min. Cells were imaged by confocal microscopy (Andor Revolution XD) using a 60× 1.4 NA oil objective. For each set of experiments, the laser power, voltage and offset were identical for a given fluorophore. Quantification of Lamp2 staining was performed by obtaining the total fluorescence using the surface tool in Imaris (Bitplane).

Assay [3] deals with EGFP-LC3-labeled autophagosomes in primary RPE. Briefly: Live imaging of EGFP-LC3 autophagosome trafficking (spinning disk, Boolean gating). The following applies: desipramine 10 μM for 3 h. Here is the method:
RPE cells were transfected with EGFP-LC3 or tandem fluorescent mRFP-GFP-LC3 (Addgene) using the AMAXA NUCLEOFECTOR II (Lonza). Approximately 1.5 million cells and 5 μg of plasmid DNA were used for each transfection. Cells were plated either on serum-coated glass-bottom dishes (Mattek) or TRANSWELL filters at confluence. Live imaging of autophagosome traffic and autophagic flux were performed on the Revolution XD spinning disk microscopy system (Andor) equipped with the Yokogawa CSU-X1 confocal spinning disk head, Nikon Eclipse Ti inverted microscope surrounded by an Okolab cage incubator, iXon x3 897 EM-CCD camera, Andor laser combiner with four solid state lasers at 405, 488, 561, and 640 nm and corresponding band-pass filter sets (Sutter), and ASI motorized stage with piezo-Z for rapid Z-stack acquisition. Andor IQ2 software was used for image acquisition and Imaris x64 (Bitplane) for image analysis. For live imaging, cells were serum starved for 2 h to induce autophagy and rapid z-stacks were acquired using the 100×1.49 NA Apo TIRF objective (Nikon) for ˜50 frames at 37° C. Trafficking data was collected from three separate transfections for a total of at least 12-30 movies captured for treatment. During image acquisition care was taken to maintain the same laser power, exposure and electron-multiplying gain settings. Trafficking analysis was carried out using the Spots and Tracks modules of the Imaris software (Liu et al., 2010). After background subtraction (using the background subtraction algorithm and identical automatic threshold for all images) and smoothing (Gaussian algorithm with identical threshold settings for all images), Spots and Tracks algorithms were used to identify vesicles and follow them through time and cell-space to obtain total track length and track displacement. […] Data were analyzed using either a two-tailed t-test or one-way ANOVA followed by Bonferroni or Dunnett's post-tests (GraphPad PRISM). Unless otherwise stated, data are presented as Mean±S.E.M. of ≥3 independent experiments, with 3 to 4 replicates per condition per experiment. […] Regions were defined by: minimum or maximum track length, minimum or maximum displacement and a slope of 0.5 (displacement divided by length). Tracks with slope <0.5 were taken as less straight (region 2) than those with slope of >0.5 (region 3). Tracks within each region are represented as a percent of total number of tracks in Tables 1 and 2. One-way ANOVA or t-tests were used to compare regions between treatment groups. […] To examine the efficiency of autophagosome transport, Spots and Tracks algorithms in Imaris were used to calculate how far each autophagosome traveled (track displacement length) as a function of the movement required to travel that distance (total track length) (Liu et al., 2010).

Setting [4] is: percent of total EGFP-LC3 tracks, serum-starved RPE.

Regarding `CNCCCN1c2ccccc2CCc2ccccc21` [desipramine], in assay [1], the “acetylated tubulin in RPE with A2E” value is given as “decreased acetylated tubulin in cells with A2E”. Also, the lysosome exocytosis result in assay [2] is “restored lysosome exocytosis”. In assay [3] (RPE cells with A2E), the “number of motile tracks and long-range displacement of autophagosomes” value is “increased both the number of motile tracks and long-range displacement of autophagosomes”. In addition, in assay [3] (setting [4]), the “Region 1 (R1) (D <2.5 μm, L <10 μm)” value is given as 84.28% and the “Region 3 (R3) (L >10 μm, Slope >0.5 μm)” value came to 7.93%.
